Source: patent publication US20150094474A1, “AGRICULTURAL CHEMICALS” (Redx Pharma Ltd., priority 2012, published 2015)

Key:
[1] = tested on: barley; assay: Herbicidal bioassay, barley (% necrosis); type: in vivo
In short: (§1)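 Scoring of % necrosis followed EPPO guideline PP1/135 at specified growth intervals, five replicates per species and treatment. Plants at the 2-4 true leaf stage received Potter-tower sprays of DMSO-diluted compounds across six levels from 0.0001% to 0.05%, with water and DMSO controls.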

[2] = tested on: peas; assay: Herbicidal bioassay, peas (% necrosis); type: in vivo
In short: as §1

CC(/C=N/OCc1ccccc1)Oc1ccc(Oc2ccc(C(F)(F)F)cn2)cc1 (stereo not drawn) [Compound 65, N-Benzyloxy-2-[4-[[5-(trifluoromethyl)-2-pyridyl]oxy]phenoxy]propan-1-imine]
C (less than 50% necrosis): Sum of % necrosis in barley ([1]; Dose 0.000001, Day 0) | Sum of % necrosis in barley ([1]; Dose 0.000001, Day 1) | Sum of % necrosis in barley ([1]; Dose 0.000001, Day 3) | Sum of % necrosis in barley ([1]; Dose 0.000001, Day 7) | Sum of % necrosis in barley ([1]; Dose 0.000001, Day 10) | Sum of % necrosis in barley ([1]; Dose 0.000001, Day 14) | Sum of % necrosis in barley ([1]; Dose 0.000005, Day 0) | Sum of % necrosis in barley ([1]; Dose 0.000005, Day 1) | Sum of % necrosis in barley ([1]; Dose 0.000005, Day 3) | Sum of % necrosis in barley ([1]; Dose 0.000005, Day 7) | Sum of % necrosis in barley ([1]; Dose 0.000005, Day 10) | Sum of % necrosis in barley ([1]; Dose 0.000005, Day 14) | Sum of % necrosis in barley ([1]; Dose 0.00001, Day 0) | Sum of % necrosis in barley ([1]; Dose 0.00001, Day 1) | Sum of % necrosis in barley ([1]; Dose 0.00001, Day 3) | Sum of % necrosis in barley ([1]; Dose 0.00001, Day 7) | Sum of % necrosis in barley ([1]; Dose 0.00001, Day 10) | Sum of % necrosis in barley ([1]; Dose 0.00001, Day 14) | Sum of % necrosis in barley ([1]; Dose 0.00005, Day 0) | Sum of % necrosis in barley ([1]; Dose 0.00005, Day 1) | Sum of % necrosis in barley ([1]; Dose 0.00005, Day 3) | Sum of % necrosis in barley ([1]; Dose 0.00005, Day 7) | Sum of % necrosis in barley ([1]; Dose 0.00005, Day 10) | Sum of % necrosis in barley ([1]; Dose 0.00005, Day 14) | Sum of % necrosis in barley ([1]; Dose 0.0001, Day 0) | Sum of % necrosis in barley ([1]; Dose 0.0001, Day 1) | Sum of % necrosis in barley ([1]; Dose 0.0001, Day 3) | Sum of % necrosis in barley ([1]; Dose 0.0001, Day 7) | Sum of % necrosis in barley ([1]; Dose 0.0001, Day 10) | Sum of % necrosis in barley ([1]; Dose 0.0001, Day 14) | Sum of % necrosis in barley ([1]; Dose 0.0005, Day 0) | Sum of % necrosis in barley ([1]; Dose 0.0005, Day 1) | Sum of % necrosis in barley ([1]; Dose 0.0005, Day 3) | Sum of % necrosis in barley ([1]; Dose 0.0005, Day 7) | Sum of % necrosis in barley ([1]; Dose 0.0005, Day 10) | Sum of % necrosis in barley ([1]; Dose 0.0005, Day 14) | Sum of % necrosis in Peas ([2]; Dose 0.000001, Day 0) | Sum of % necrosis in Peas ([2]; Dose 0.000001, Day 1) | Sum of % necrosis in Peas ([2]; Dose 0.000001, Day 3) | Sum of % necrosis in Peas ([2]; Dose 0.000001, Day 7) | Sum of % necrosis in Peas ([2]; Dose 0.000001, Day 10) | Sum of % necrosis in Peas ([2]; Dose 0.000001, Day 14) | Sum of % necrosis in Peas ([2]; Dose 0.000005, Day 0) | Sum of % necrosis in Peas ([2]; Dose 0.000005, Day 1) | Sum of % necrosis in Peas ([2]; Dose 0.000005, Day 3) | Sum of % necrosis in Peas ([2]; Dose 0.000005, Day 7) | Sum of % necrosis in Peas ([2]; Dose 0.000005, Day 10) | Sum of % necrosis in Peas ([2]; Dose 0.000005, Day 14) | Sum of % necrosis in Peas ([2]; Dose 0.00001, Day 0) | Sum of % necrosis in Peas ([2]; Dose 0.00001, Day 1) | Sum of % necrosis in Peas ([2]; Dose 0.00001, Day 3) | Sum of % necrosis in Peas ([2]; Dose 0.00001, Day 7) | Sum of % necrosis in Peas ([2]; Dose 0.00001, Day 10) | Sum of % necrosis in Peas ([2]; Dose 0.00001, Day 14) | Sum of % necrosis in Peas ([2]; Dose 0.00005, Day 0) | Sum of % necrosis in Peas ([2]; Dose 0.00005, Day 1) | Sum of % necrosis in Peas ([2]; Dose 0.00005, Day 3) | Sum of % necrosis in Peas ([2]; Dose 0.00005, Day 7) | Sum of % necrosis in Peas ([2]; Dose 0.00005, Day 10) | Sum of % necrosis in Peas ([2]; Dose 0.00005, Day 14) | Sum of % necrosis in Peas ([2]; Dose 0.0001, Day 0) | Sum of % necrosis in Peas ([2]; Dose 0.0001, Day 1) | Sum of % necrosis in Peas ([2]; Dose 0.0001, Day 3) | Sum of % necrosis in Peas ([2]; Dose 0.0001, Day 7) | Sum of % necrosis in Peas ([2]; Dose 0.0001, Day 10) | Sum of % necrosis in Peas ([2]; Dose 0.0001, Day 14) | Sum of % necrosis in Peas ([2]; Dose 0.0005, Day 0) | Sum of % necrosis in Peas ([2]; Dose 0.0005, Day 1) | Sum of % necrosis in Peas ([2]; Dose 0.0005, Day 3) | Sum of % necrosis in Peas ([2]; Dose 0.0005, Day 7) | Sum of % necrosis in Peas ([2]; Dose 0.0005, Day 10) | Sum of % necrosis in Peas ([2]; Dose 0.0005, Day 14)
